The source made the active and inactive calls.
Experiments:
[1] = molecular target: T1, Sentrin-specific protease 8 (Homo sapiens, UniProt Q96LD8); assay type: functional
T1 sequence (Q96LD8 whole entry): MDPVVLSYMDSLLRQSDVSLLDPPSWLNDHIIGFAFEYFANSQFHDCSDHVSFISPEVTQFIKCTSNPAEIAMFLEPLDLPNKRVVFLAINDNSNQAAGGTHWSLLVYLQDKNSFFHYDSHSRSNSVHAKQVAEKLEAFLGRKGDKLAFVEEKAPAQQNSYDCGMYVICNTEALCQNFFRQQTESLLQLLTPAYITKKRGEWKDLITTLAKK

Caspase-3 = molecular target: T2, Caspase-3 (Homo sapiens, UniProt P42574); experiment: Dose-response confirmation of uHTS inhibitor hits of Sentrin-Specific Protease 8 in a Caspase-3 Fluorescence assay.; assay type: functional
T2 sequence (P42574 whole entry): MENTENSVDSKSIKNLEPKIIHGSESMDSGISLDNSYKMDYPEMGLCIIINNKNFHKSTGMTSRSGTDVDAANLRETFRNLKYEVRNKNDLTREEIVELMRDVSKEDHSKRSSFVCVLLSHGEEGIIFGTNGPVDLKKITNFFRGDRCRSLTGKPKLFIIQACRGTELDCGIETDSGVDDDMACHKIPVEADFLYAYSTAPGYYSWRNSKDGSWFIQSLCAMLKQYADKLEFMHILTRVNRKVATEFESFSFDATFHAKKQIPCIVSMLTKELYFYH

[2] = molecular target: T1, Sentrin-specific protease 8; assay type: functional; remark: listed apart in the source
[3] = molecular target: T3, Methionyl-tRNA synthetase, putative (Trypanosoma brucei brucei, UniProt Q38C91); assay type: functional, Trypanosoma brucei brucei strain 927/4 GUTat10.1
[4] = molecular target: T4, Carboxy-terminal domain RNA polymerase II polypeptide A small phosphatase 1 (Homo sapiens, UniProt Q9GZU7); experiment: CTDSP1 inhibitors, concentration-response, biochemical, absorbance readout, ultra-high-throughput screen actives (AID 540297); assay type: functional
T4 sequence (Q9GZU7 whole entry): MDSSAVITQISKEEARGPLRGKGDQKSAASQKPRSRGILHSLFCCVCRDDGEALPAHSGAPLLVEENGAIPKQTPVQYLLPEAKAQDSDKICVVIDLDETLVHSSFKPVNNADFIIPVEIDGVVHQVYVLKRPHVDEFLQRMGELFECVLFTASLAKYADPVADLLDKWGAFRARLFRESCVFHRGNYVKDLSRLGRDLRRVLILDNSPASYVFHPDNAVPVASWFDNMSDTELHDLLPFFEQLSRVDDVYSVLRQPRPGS

[5] = Counterscreen for inhibitors of Trypanosoma brucei methionyl tRNA synthetase (MetRS): Luminescence-based cell-based high throughput dose response assay to identify compounds that are cytotoxic to Jurkat human T lymphocyte cells.; assay type: functional
[6] = molecular target: T3, Methionyl-tRNA synthetase, putative; assay type: functional, Trypanosoma brucei brucei strain 927/4 GUTat10.1; remark: listed apart in the source
[7] = molecular target: Low molecular weight phosphotyrosine protein phosphatase (Homo sapiens, UniProt P24666); assay type: functional; details: read-out: IC50_Mean;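 also: Dose-response confirmation assay measuring inhibition of LMPTP enzyme activity by fluorescence intensity read-out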
[8] = viability of uninfected HEp-2 cells – cell-based, HTS, cytotoxicity control for RSV inhibitor project, dose response (AID 2410); assay type: functional; details: human respiratory syncytial virus
[9] = Luminescence Cell-Based Dose Confirmation HTS to Identify Inhibitors of Platelet Dense Granule Release. [Related pubchem assays: 1663 (Primary HTS), 1678 (Summary of Project)]; assay type: functional
[10] = molecular target: Luciferin 4-monooxygenase (Photinus pyralis, UniProt P08659); experiment: inhibition of purified Photinus pyralis luciferase – biochemical, luminescence, dose response (AID 1891)
[11] = viability loss in HEK293T cells – cell-based, cherry-picks, cytotoxicity control for HIV Vif inhibitor project, dose response (AID 652208); assay type: functional
[12] = HEK-293T viability loss after treatment – luminescence, T-cell screen hits, cytotoxicity control for TCR NF-kB inhibitor project, dose response (AID 489026); assay type: functional, cell-based;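 also: cells exposed to compound about 14 hours before the viability readout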
Beta-lactamase [13] = molecular target: Beta-lactamase (Salmonella choleraesuis (strain SC-B67), UniProt Q5J463); experiment: Epi-absorbance-based counterscreen for selective VIM-2 inhibitors: dose response biochemical high throughput screening assay to identify inhibitors of TEM-1 serine-beta-lactamase.
Beta Lactamase [14] = molecular target: T5, Beta Lactamase (Pseudomonas aeruginosa, UniProt Q932Y6); experiment: VIM-2 CCF2 hydrolysis inhibition, assay artifact filter – biochemical, FRET readout, CCF2 substrate, artefact control for selective VIM-2 inhibitor project, dose response (AID 1926)
Beta-lactamase [15] = molecular target: T6, Beta-lactamase (Pseudomonas aeruginosa, UniProt Q79MP6); experiment: inhibition of IMP-1 beta-lactamase activity – biochemical, epi-absorbance, selectivity assay for VIM-2 inhibitor project, dose response (AID 1920)
Beta Lactamase [16] = molecular target: T5, Beta Lactamase; experiment: concentration-dependent VIM-2 enzyme inhibition – biochemical, epi-absorbance readout, selective inhibitors, dose response (AID 1919)
Beta-lactamase [17] = molecular target: T6, Beta-lactamase; experiment: […] counterscreen for selective VIM-2 inhibitors: dose response biochemical high throughput screening assay to identify inhibitors of IMP-1 metallo-beta-lactamase.
[18] = Fluorescence-based cell-based high throughput dose response assay for inhibitors of the interaction of nucleotide-binding oligomerization domain containing 2 (NOD2) and the receptor-interacting serine-threonine kinase 2 (RIPK2).; assay type: functional; details: Homo sapiens
[19] = microbe, parasite or virus in culture; assay type: functional; details: Mycobacterium tuberculosis
INS1 = experiment: INS-1E survival protection against cytokine death – cell-based, luminescence, retest, dose response (AID 449756); assay type: functional; details: Rattus norvegicus;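 also: cell death triggered by IL-1 beta plus TNF-alpha plus IFN-gamma mixture; protective hits raise ATP signal compared with cytokine alone wells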
BJ [20] = experiment: BJ-TERT-LT-ST fibroblast viability loss – cell-based, RAS-independent, luminescence, dose response (AID 1935); assay type: functional; details: Homo sapiens;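 also: BJ fibroblasts immortalized with TERT plus LT and ST oncogenes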
BJ [21] = experiment: cells; assay type: functional, cell-based; details: Homo sapiens
[22] = DRD fibroblast viability loss – cell-based, non-viral oncogenic, luminescence, dose response (AID 1934); assay type: functional; details: Homo sapiens
BJ [23] = experiment: growth inhibition of engineered Ras-driven BJ cells – cell-based, alamar blue fluorescence, cherrypicked samples, dose response (AID 2631); assay type: functional; details: Homo sapiens;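 also: confirmatory dose-response assay in RAS-dependent BJ fibroblasts engineered with TERT, LT and ST, with cytotoxicity read by fluorescence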
BJ [24] = experiment: BJ-TERT fibroblast viability loss – cell-based, RAS-independent, luminescence, dose response (AID 1933); assay type: functional; details: Homo sapiens

T6 sequence (Q79MP6 whole entry): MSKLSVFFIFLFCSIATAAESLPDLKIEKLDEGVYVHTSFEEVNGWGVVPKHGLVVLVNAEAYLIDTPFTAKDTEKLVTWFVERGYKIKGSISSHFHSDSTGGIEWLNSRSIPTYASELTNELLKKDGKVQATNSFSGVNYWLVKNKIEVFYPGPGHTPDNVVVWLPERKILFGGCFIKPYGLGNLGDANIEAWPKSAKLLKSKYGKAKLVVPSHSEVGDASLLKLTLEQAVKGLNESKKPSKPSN
T3 sequence (Q38C91 whole entry, the tested form may be a part): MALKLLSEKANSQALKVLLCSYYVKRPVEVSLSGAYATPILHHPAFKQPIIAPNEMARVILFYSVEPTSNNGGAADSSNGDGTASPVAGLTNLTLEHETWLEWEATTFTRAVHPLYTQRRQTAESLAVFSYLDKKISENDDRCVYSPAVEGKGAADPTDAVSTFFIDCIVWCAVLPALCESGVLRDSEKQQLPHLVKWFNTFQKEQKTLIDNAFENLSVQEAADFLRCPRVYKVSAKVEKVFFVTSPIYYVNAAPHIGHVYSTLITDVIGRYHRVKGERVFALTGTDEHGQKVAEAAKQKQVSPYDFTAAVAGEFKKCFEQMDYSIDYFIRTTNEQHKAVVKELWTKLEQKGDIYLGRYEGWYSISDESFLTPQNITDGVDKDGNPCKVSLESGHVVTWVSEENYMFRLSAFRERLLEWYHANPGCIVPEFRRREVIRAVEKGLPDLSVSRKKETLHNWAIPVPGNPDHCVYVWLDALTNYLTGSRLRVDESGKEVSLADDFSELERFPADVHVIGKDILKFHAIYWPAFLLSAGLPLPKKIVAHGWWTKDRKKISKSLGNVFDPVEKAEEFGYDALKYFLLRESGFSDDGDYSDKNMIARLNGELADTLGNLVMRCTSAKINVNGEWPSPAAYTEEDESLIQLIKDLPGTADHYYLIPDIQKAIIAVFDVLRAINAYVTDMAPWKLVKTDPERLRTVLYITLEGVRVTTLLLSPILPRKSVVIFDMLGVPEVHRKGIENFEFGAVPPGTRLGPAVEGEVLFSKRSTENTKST
T5 sequence (Q932Y6 whole entry): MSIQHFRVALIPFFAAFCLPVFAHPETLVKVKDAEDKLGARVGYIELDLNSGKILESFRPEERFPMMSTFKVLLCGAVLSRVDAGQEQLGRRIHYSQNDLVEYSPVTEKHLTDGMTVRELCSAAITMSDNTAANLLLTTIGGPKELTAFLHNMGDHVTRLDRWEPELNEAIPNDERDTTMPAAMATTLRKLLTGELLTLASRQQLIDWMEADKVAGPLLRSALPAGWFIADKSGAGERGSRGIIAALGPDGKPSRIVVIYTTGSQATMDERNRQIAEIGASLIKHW
Luciferin 4-monooxygenase, sequence (P08659 whole entry): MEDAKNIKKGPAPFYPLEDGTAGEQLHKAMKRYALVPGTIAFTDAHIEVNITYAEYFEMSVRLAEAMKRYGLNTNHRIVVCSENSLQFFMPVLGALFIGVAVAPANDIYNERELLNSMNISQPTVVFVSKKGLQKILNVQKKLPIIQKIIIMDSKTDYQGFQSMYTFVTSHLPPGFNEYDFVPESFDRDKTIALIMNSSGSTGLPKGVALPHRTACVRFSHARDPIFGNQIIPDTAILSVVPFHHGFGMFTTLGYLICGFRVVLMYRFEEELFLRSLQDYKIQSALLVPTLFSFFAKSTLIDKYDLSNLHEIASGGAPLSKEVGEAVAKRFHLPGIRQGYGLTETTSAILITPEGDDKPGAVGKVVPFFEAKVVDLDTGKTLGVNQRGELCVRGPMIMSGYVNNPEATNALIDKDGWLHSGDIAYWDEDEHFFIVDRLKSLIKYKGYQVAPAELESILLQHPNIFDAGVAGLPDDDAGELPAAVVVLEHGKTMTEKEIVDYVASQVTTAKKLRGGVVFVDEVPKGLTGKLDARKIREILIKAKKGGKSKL
Beta-lactamase (Salmonella choleraesuis (strain SC-B67), UniProt Q5J463), sequence (Q5J463 whole entry): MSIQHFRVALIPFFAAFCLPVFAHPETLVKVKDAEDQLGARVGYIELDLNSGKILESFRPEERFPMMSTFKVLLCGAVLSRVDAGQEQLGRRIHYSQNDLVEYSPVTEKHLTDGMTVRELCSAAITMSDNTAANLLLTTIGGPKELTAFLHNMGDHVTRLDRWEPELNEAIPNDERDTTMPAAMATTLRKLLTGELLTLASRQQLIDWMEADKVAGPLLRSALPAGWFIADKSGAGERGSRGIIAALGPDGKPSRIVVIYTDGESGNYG
Low molecular weight phosphotyrosine protein phosphatase, sequence (P24666 whole entry): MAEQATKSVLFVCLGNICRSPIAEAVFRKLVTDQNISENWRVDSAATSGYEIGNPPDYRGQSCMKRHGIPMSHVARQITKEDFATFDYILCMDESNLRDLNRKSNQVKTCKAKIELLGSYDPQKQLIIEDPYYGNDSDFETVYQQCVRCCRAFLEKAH

COc1cccc(-c2cc(C(=O)N3CCc4ccccc4C3)no2)c1
IC50 [1]: 7.7 µM (active)
IC50 (Caspase-3): 32 µM (active)
IC50 [2]: 46 µM (active)

COc1ccc(CNC(=O)CSc2n[nH]c3c4cc(OC)ccc4nc-3n2)cc1
IC50 [3]: 76.2 µM (inactive)
IC50 [4]: 8.05 µM (active)
IC50 [5]: 83.3 µM (inactive)
IC50 [6]: 71.6 µM (inactive)

Cc1cccc2nc(-c3ccccc3)nc(N[C@@H](CO)c3ccccc3)c12
IC50 [7]: 17 µM (active)
CC50 [8]: 19 µM (active)
EC50 [9]: > 112 µM (not active)
EC50 [10]: > 112 µM (not active)

CCCOCCOC(=O)c1[nH]c2c(c1C)C(=O)CC(c1cc(OC)ccc1OC)C2 (stereo unspecified)
AC50 [11]: > 52 µM (inactive)
IC50 [12]: > 80 µM (inactive)

O=[N+]([O-])c1ccccc1/C=N/n1c(S)nnc1C(F)(F)F
IC50 (Beta-lactamase [13]): > 59.6 µM (inactive)
IC50 (Beta Lactamase [14]): 3.12 µM (active)
IC50 (Beta-lactamase [15]): > 59.6 µM (inactive)
IC50 (Beta Lactamase [16]): 9.33 µM (active)
IC50 (Beta-lactamase [17]): > 59.6 µM (inactive)

CCOc1cc(/C=C2\COc3ccccc3C2=O)cc(Br)c1OCC(=O)N(C)C
IC50 [18]: 6.43 µM (active)
CC50 [19]: 15.2 µM (active)
AC50 (INS1): 7.22 µM (active)
EC50 (BJ [20]): 16.4 µM (active)
EC50 (BJ [21]): 8.64 µM (active)
EC50 [22]: 5.72 µM (active)
EC50 (BJ [23]): 2.12 µM (active)
EC50 (BJ [24]): 5.54 µM (inconclusive)

— ChEMBL document CHEMBL1201862, “PubChem BioAssay data set” (2004)
